Measured values: ChEMBL document CHEMBL3739404, “Arylsulfonamide derivatives of (aryloxy)ethylpiperidines as selective 5-HT7receptor antagonists and their psychotropic properties” (Medchemcomm, 2015)
Activity calls are given as the source filed them. No cut-off for these calls is given here.

Tests used:
[1] = tested on: Mus musculus; assay: Anxiolytic-like activity in albino Swiss mouse assessed as increase in number of punished crossings at 1 mg/kg, ip dosed 30 mins before test by four plate test; assay type: functional, organism-based
[2] = tested on: Mus musculus; assay: Toxicity in albino Swiss mouse assessed as effect on spontaneous locomotor activity at 10 mg/kg, ip dosed 30 mins before test measured for 2 to 6 mins by M3 multichannel activity test; assay type: organism-based; conditions: in vivo
[3] = tested on: Mus musculus; assay: Toxicity in albino Swiss mouse assessed as effect on spontaneous locomotor activity at 1 mg/kg, ip dosed 30 mins before test measured for 1 min 15 secs by M3 multichannel activity test; assay type: organism-based; conditions: in vivo
[4] = tested on: Mus musculus; assay: Antidepressant-like activity in albino Swiss mouse assessed as reduction in immobility time at 10 mg/kg, ip dosed 30 mins before test by forced swim test; assay type: functional; set-up: scale not given: the % may be the effect or the level left

For `CC1CCN(CC[C@H]2CCCN2S(=O)(=O)c2cccc(O)c2)CC1`, the Activity [1] was “Active”, the Activity [2] was “Non-toxic” and the Activity [3] was “Non-toxic”. The Activity [4] was 33%.
